Tests used:
Format in all cases: cell-based
[1] = system: Human Promyelocytic Leukaemia NB4 Cells; assay: Cyto-fluorometric cell cycle analysis, NB4; conditions: 3 days; for G0/G1 / G2 + M / S: percentage of cell cycle phase
Description: To evaluate the effect of the compound according to the invention, on various phases of the cell cycle, cyto-fluorometric cell cycle analyses were performed.
HL60 or NB4 cells were seeded onto plates at a density of 150.000 cells/ml in RPMI 1640 medium containing 10% FCS, the test compound (ST 1926) was added, solubilised in 0.1% DMSO at concentrations of between 0.01 and 0.1 μM, in the presence or absence of sub-optimal doses of ATRA (5-10 nM for NB4 and 0.5 μM for HL60) in the dark and placed in an incubator for 3 days without changing the culture medium.
On the third day of treatment 500.000 cells were sampled, centrifuged at 180×g for 5 minutes, washed twice in calcium and magnesium free PBS. The cells (1×10^6/ml of fixative) were fixed for at least 1 hour in a fixation mixture comprised of acetone/methanol 1:4 v/v maintained at −20° C. and 50% of calcium and magnesium free PBS; then the cells were centrifuged, washed in calcium and magnesium free PBS, and again centrifuged and washed. The cellular precipitate was incubated for 30 minutes in the dark at room temperature with 200 μl of […] (100 μg/ml) and 200 μl of RNAse (150 KU/mg).
The samples with filtered through nylon filters (60-80 μm diameter) and analysed by cyto-fluorimeter FACScan (Becton Dickinson), acquiring 20000 events/sample, at an excitation wavelength of 488 nm and emission wavelength of 620 nm. The analysis of the percentages of the cell cycle phases was performed using a dedicated software package, Modfit v. 2.0 (Becton Dickinson).

[2] = system: A2780/Dx multidrug-resistant human ovarian carcinoma cells; assay: Cytotoxicity in combination with TRAIL, A2780/Dx; conditions: 72 hours, value >1 synergism (FIG. 1)
Description: FIG. 1 is a graph showing the interaction between ST1926 and TRAIL in A2780/Dx multidrug-resistant human ovarian carcinoma cells at different concentrations of TRAIL.
(§1) A study of cytotoxicity of ST1926 in combination with TRAIL was performed in two different tumor cell lines such as M109 murine lung carcinoma and A2780/Dx multidrug-resistant human ovarian carcinoma. Cells were maintained in RPMI 1640 medium containing 10% FCS, 1% sodium pyruvate and 1% glutamine.
(§2) The cells were seeded in a volume of 250 μl in 96 well plates and incubated for 24 hours at 37° C. The following day, test compound ST 1926 [(2E)-3-[3′-(1-Adamantyl)-4′-hydroxy[1,1′-biphenyl]-4-yl]-2-propenoate/ic acid] or TRAIL were added at increasing concentrations, and the cells were incubated for a further 72 hours at 37° C. in a humidified atmosphere containing 5% CO2. On the 5th day, the supernatant was removed by upturning the plates. 200 μl of PBS and 50 μl of cold, 80% TCA were added. The plates were then left to incubate on ice for at least 1 hour. The TCA was removed by upturning; the plates were washed three times by immersion in distilled water and dried first on paper, then with a jet of hot air. […] The optical density was measured using a Multiskan spectrophotometer at 540 nm.
(§3) The interaction between ST1926 and TRAIL was determined by using the analysis of Drewinko et al. (Cancer Biochem. Biophys. 1: 187-195, 1976). […]

[3] = system: M109 murine lung carcinoma cells; assay: Cytotoxicity in combination with TRAIL, M109; conditions: M109, 72 hours, value >1 synergism (FIG. 2)
Description: FIG. 2 is a graph showing the interaction between ST1926 and TRAIL in M109 murine lung carcinoma cells at different concentrations of TRAIL.
as §1, §2, §3

O=C(O)/C=C/c1ccc(-c2ccc(O)c(C34CC5CC(CC(C5)C3)C4)c2)cc1 [ST1926, E-4-(3-(1-adamantyl)-4-hydroxyphenyl)cinnamic acid]
APOPTOSIS ([1]; NB4, 0.01 μM): 19.9
G0/G1 ([1]; NB4, 0.01 μM): 48.4
G2 + M ([1]; NB4, 0.01 μM): 12.8
S ([1]; NB4, 0.01 μM): 38.8
APOPTOSIS ([1]; NB4, 0.02 μM): 28.4
G0/G1 ([1]; NB4, 0.02 μM): 48.2
G2 + M ([1]; NB4, 0.02 μM): 12.4
S ([1]; NB4, 0.02 μM): 39.4
APOPTOSIS ([1]; NB4, 0.04 μM): 33.9
G0/G1 ([1]; NB4, 0.04 μM): 51.3
G2 + M ([1]; NB4, 0.04 μM): 13.0
S ([1]; NB4, 0.04 μM): 35.7
APOPTOSIS ([1]; NB4, 0.08 μM): 45.0
G0/G1 ([1]; NB4, 0.08 μM): 41.4
G2 + M ([1]; NB4, 0.08 μM): 5.0
S ([1]; NB4, 0.08 μM): 53.6
APOPTOSIS ([1]; NB4, 0.1 μM): 53.6
G0/G1 ([1]; NB4, 0.1 μM): 50.6
G2 + M ([1]; NB4, 0.1 μM): 3.3
S ([1]; NB4, 0.1 μM): 46.1
effect on the cell cycle of NB4 (in words) ([1]; NB4, 0.08 and 0.1 μM): induces growth arrest in the duplication S phase of the cycle and apoptosis
interaction between ST1926 and TRAIL (analysis of Drewinko et al.) [2]: synergic activity
interaction between ST1926 and TRAIL (analysis of Drewinko et al.) [3]: synergic activity
